Patent US20230113609A1, “SSTR5 ANTAGONISTS” (Kallyope, Inc., priority 2019, published 2023)

The molecules below were run against T1, human SSTR5 (Homo sapiens, UniProt P35346) (assay: Inositol phosphate accumulation assay (IP1 HTRF, antagonist mode)). Details: CHO-K1 cells co-expressing human SSTR5 with Gqi5, SST28 agonist at concentration generating 90% of full activation.
T1 construct: expressed in transfected cells
Type: cell-based
How it was run: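 CHO-K1 cells stably co-expressing human SSTR5 and chimeric Gqi5 were pre-incubated with compound 15 minutes at 37° C, then stimulated with SST28 (30 nM as added, about EC90) for 90 minutes. IP1 read by HTRF (665/620 nm). % inhibition normalized to Max/Min controls; IC50 and maximal inhibition from 4-parameter fit.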

T1 sequence (P35346 whole entry): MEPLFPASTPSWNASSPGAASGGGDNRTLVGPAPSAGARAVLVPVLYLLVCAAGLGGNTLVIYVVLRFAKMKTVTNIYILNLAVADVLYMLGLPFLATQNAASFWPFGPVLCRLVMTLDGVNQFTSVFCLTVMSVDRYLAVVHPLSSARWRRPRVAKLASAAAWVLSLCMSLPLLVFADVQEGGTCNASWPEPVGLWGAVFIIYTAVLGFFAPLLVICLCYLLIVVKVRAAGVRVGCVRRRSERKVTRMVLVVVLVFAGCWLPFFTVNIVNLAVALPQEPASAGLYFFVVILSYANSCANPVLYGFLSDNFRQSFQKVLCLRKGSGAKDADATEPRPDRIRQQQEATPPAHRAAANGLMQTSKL

| IC50 [nM] | SMILES |
| --- | --- |
| 100 to 1000 | CCOc1cc(C(=O)OC)c(C2CC2)cc1CN1CCC2(CC1)CC(=O)N(c1ccc(C(=O)NC[C@@H](O)CO)cc1)C2 [Example 36, methyl (R)-2-cyclopropyl-4-((2-(4-((2,3-dihydroxypropyl)carbamoyl)phenyl)-3-oxo-2,8-diazaspiro[4.5]decan-8-yl)methyl)-5-ethoxybenzoate] |
| ≤ 100 | CCOc1cc(-c2ccc(F)cc2)c(C2CC2)cc1CN1CCC2(CC1)CN(c1ccc(C(=O)NCCCS(=O)(=O)O)cc1)C(=O)N2 [Example 66, 3-(4-(8-((2-cyclopropyl-5-ethoxy-4′-fluoro-[1,1′-biphenyl]-4-yl)methyl)-2-oxo-1,3,8-triazaspiro[4.5]decan-3-yl)benzamido)propane-1-sulfonic acid] |
| ≤ 100 | CCOc1cc(CN2CCC3(CC2)CN(c2ccc(C(=O)NCCCCS(=O)(=O)O)cc2)C(=O)O3)cc(OCC)c1-c1ccc(F)cc1 [Example 10, 4-(4-(8-((2,6-diethoxy-4′-fluoro-[1,1′-biphenyl]-4-yl)methyl)-2-oxo-1-oxa-3,8-diazaspiro[4.5]decan-3-yl)benzamido)butane-1-sulfonic acid] |
| ≤ 100 | CCOc1cc(-c2ccc(F)cc2)c(C2CC2)cc1CN1CCC2(CC1)CN(c1ccc(C(=O)NCCCS(N)(=O)=O)cc1)C(=O)O2 [Example 64, 4-(8-((2-cyclopropyl-5-ethoxy-4′-fluoro-[1,1′-biphenyl]-4-yl)methyl)-2-oxo-1-oxa-3,8-diazaspiro[4.5]decan-3-yl)-N-(3-sulfamoylpropyl)benzamide] |
| 100 to 1000 | CCOc1cc(C(=O)OC)c(C2CC2)cc1CN1CCC2(CC1)CC(=O)N(c1ccc(C(=O)N3CCC(S(N)(=O)=O)CC3)cc1)C2 [Example 52, methyl 2-cyclopropyl-5-ethoxy-4-((3-oxo-2-(4-(4-sulfamoylpiperidine-1-carbonyl)phenyl)-2,8-diazaspiro[4.5]decan-8-yl)methyl)benzoate] |
| 100 to 1000 | CCOc1cc(C(=O)OC)c(C2CC2)cc1CN1CCC2(CC1)CN(c1ccc(C(=O)NCCO)cc1)C(=O)N2 [Example 75, methyl 2-cyclopropyl-5-ethoxy-4-((3-(4-((2-hydroxyethyl)carbamoyl)phenyl)-2-oxo-1,3,8-triazaspiro[4.5]decan-8-yl)methyl)benzoate] |
| 100 to 1000 | CCOc1cc(CN2CCC3(CC2)CN(c2ccc(C(=O)NCCC[N+](C)(C)C)cc2)C(=O)O3)cc(OCC)c1-c1ccc(F)cc1 [Example 6, 3-(4-(8-((2,6-diethoxy-4′-fluoro-[1,1′-biphenyl]-4-yl)methyl)-2-oxo-1-oxa-3,8-diazaspiro[4.5]decan-3-yl)benzamido)-N,N,N-trimethylpropan-1-aminium] |
| 100 to 1000 | CCOc1cc(C(=O)OC)c(C2CC2)cc1CN1CCC2(CC1)CC(=O)N(c1ccc(C(=O)NCCOCCO)cc1)C2 [Example 26, methyl 2-cyclopropyl-5-ethoxy-4-((2-(4-((2-(2-hydroxyethoxy)ethyl)carbamoyl)phenyl)-3-oxo-2,8-diazaspiro[4.5]decan-8-yl)methyl)benzoate] |
| 100 to 1000 | CCOc1cc(C(=O)OC)c(C2CC2)cc1CN1CCC2(CC1)CC(=O)N(c1ccc(C(=O)NCCCCP(=O)(O)O)cc1)C2 [Example 47, (4-(4-(8-(5-cyclopropyl-2-ethoxy-4-(methoxycarbonyl)benzyl)-3-oxo-2,8-diazaspiro[4.5]decan-2-yl)benzamido)butyl)phosphonic acid] |
| ≤ 100 | CCOc1cc(CN2CCC3(CC2)CN(c2ccc(C(=O)NCCNC(=O)NC(CO)(CO)CO)cc2)C(=O)O3)cc(OCC)c1-c1ccc(F)cc1 [Example 7, 4-(8-((2,6-diethoxy-4′-fluoro-[1,1′-biphenyl]-4-yl)methyl)-2-oxo-1-oxa-3,8-diazaspiro[4.5]decan-3-yl)-N-(2-(3-(1,3-dihydroxy-2-(hydroxymethyl)propan-2-yl)ureido)ethyl)benzamide] |
| ≤ 100 | CCOc1cc(S(C)(=O)=O)c(C2CC2)cc1CN1CCC2(CC1)CN(c1ccc(S(=O)(=O)N(Cc3ccc(OC)cc3)Cc3ccc(OC)cc3)cc1)C(=O)N2 [compound 86, 4-[8-[(5-cyclopropyl-2-ethoxy-4-methylsulfonyl-phenyl)methyl]-2-oxo-1,3,8-triazaspiro[4.5]decan-3-yl]-N,N-bis[(4-methoxyphenyl)methyl]benzenesulfonamide] |
| ≤ 100 | CCOc1cc(-c2ccc(F)cc2)c(C2CC2)cc1CN1CCC2(CC1)CN(c1ccc(C(=O)NCCOCCO)cc1)C(=O)N2 [compound 65, 4-(8-((2-cyclopropyl-5-ethoxy-4′-fluoro-[1,1′-biphenyl]-4-yl)methyl)-2-oxo-1,3,8-triazaspiro[4.5]decan-3-yl)-N-(2-(2-hydroxyethoxy)ethyl)benzamide] |
| 100 to 1000 | CCOc1cc(-c2nc(C)no2)c(C2CC2)cc1CN1CCC2(CC1)CN(c1ccc(C(=O)NCCOCCO)cc1)C(=O)N2 [Example 67, 4-(8-(5-cyclopropyl-2-ethoxy-4-(3-methyl-1,2,4-oxadiazol-5-yl)benzyl)-2-oxo-1,3,8-triazaspiro[4.5]decan-3-yl)-N-(2-(2-hydroxyethoxy)ethyl)benzamide] |
| 100 to 1000 | CCOc1cc(C(=O)OC)c(C2CC2)cc1CN1CCC2(CC1)CC(=O)N(c1ccc(C(=O)NCCS(=O)(=O)O)cc1)C2 [Example 29, 2-(4-(8-(5-cyclopropyl-2-ethoxy-4-(methoxycarbonyl)benzyl)-3-oxo-2,8-diazaspiro[4.5]decan-2-yl)benzamido)ethane-1-sulfonic acid] |
| 100 to 1000 | CCOc1cc(CN2CCC3(CC2)CN(c2ccc(C(=O)N[C@@H](CC(=O)O)C(=O)O)cc2)C(=O)O3)cc(OCC)c1-c1ccc(F)cc1 [Example 9, (4-(8-((2,6-diethoxy-4′-fluoro-[1,1′-biphenyl]-4-yl)methyl)-2-oxo-1-oxa-3,8-diazaspiro[4.5]decan-3-yl)benzoyl)-L-aspartic acid] |
| 100 to 1000 | CCOc1cc(C(=O)OC)c(C2CC2)cc1CN1CCC2(CC1)CC(=O)N(c1ccc(C(=O)NC(CO)CO)cc1)C2 [Example 19, methyl 2-cyclopropyl-4-((2-(4-((1,3-dihydroxypropan-2-yl)carbamoyl)phenyl)-3-oxo-2.8-diazaspiro[4.5]decan-8-yl)methyl)-5-ethoxybenzoate] |
| 1000 to 5000 | CCOc1cc(C(=O)OC)c(C2CC2)cc1CN1CCC2(CC1)CC(=O)N(c1ccc(C(=O)N3CC(CO)(CO)C3)cc1)C2 [Example 42, methyl 4-((2-(4-(3,3-bis(hydroxymethyl)azetidine-1-carbonyl)phenyl)-3-oxo-2,8-diazaspiro[4.5]decan-8-yl)methyl)-2-cyclopropyl-5-ethoxybenzoate] |
| ≤ 100 | CCOc1cc(-c2ccc(F)cn2)c(C2CC2)cc1CN1CCC2(CC1)CN([C@H]1CC[C@](C)(C(=O)NCCCS(=O)(=O)O)CC1)C(=O)O2 [compound 91] |
| 100 to 1000 | CCOc1cc(C(=O)OC)c(C2CC2)cc1CN1CCC2(CC1)CC(=O)N(c1ccc(C(=O)NCCOCCOCCO)cc1)C2 [Example 49, methyl 2-cyclopropyl-5-ethoxy-4-((2-(4-((2-(2-(2-hydroxyethoxy)ethoxy)ethyl)carbamoyl)phenyl)-3-oxo-2,8-diazaspiro[4.5]decan-8-yl)methyl)benzoate] |
| 1000 to 5000 | CCOc1cc(C(=O)OC)c(C2CC2)cc1CN1CCN(C(=O)Nc2ccc(C(=O)NC[C@H](O)[C@@H](O)[C@H](O)[C@H](O)CO)cc2)CC1 [compound 93, methyl 2-cyclopropyl-5-ethoxy-4-[[4-[[4-[[(2S,3R,4R,5R)-2,3,4,5,6-pentahydroxyhexyl]carbamoyl]phenyl]carbamoyl]piperazin-1-yl]methyl]benzoate] |
| ≤ 100 | CCOc1cc(C(=O)OC)c(C2CC2)cc1CN1CCC2(CC1)CN(c1ccc(C(=O)NCCOCCO)cc1)C(=O)O2 [Example 56, methyl 2-cyclopropyl-5-ethoxy-4-((3-(4-((2-(2-hydroxyethoxy)ethyl)carbamoyl)phenyl)-2-oxo-1-oxa-3,8-diazaspiro[4.5]decan-8-yl)methyl)benzoate] |
| 100 to 1000 | CCOc1cc(C(=O)OC)c(C2CC2)cc1CN1CCC2(CC1)CC(=O)N(c1ccc(C(=O)N3CCC(CS(N)(=O)=O)CC3)cc1)C2 [Example 53, methyl 2-cyclopropyl-5-ethoxy-4-((3-oxo-2-(4-(4-(sulfamoylmethyl)piperidine-1-carbonyl)phenyl)-2,8-diazaspiro[4.5]decan-8-yl)methyl)benzoate] |
| > 5000 | CCOc1cc(C(=O)OC)c(C2CC2)cc1CN1CCC2(CC1)CC(=O)N(c1ccc(C(=O)NCCCS(=O)(=O)O)cc1)C2 [Example 30, 3-(4-(8-(5-cyclopropyl-2-ethoxy-4-(methoxycarbonyl)benzyl)-3-oxo-2,8-diazaspiro[4.5]decan-2-yl)benzamido)propane-1-sulfonic acid] |
| ≤ 100 | CCOc1cc(-c2ccc(F)cc2)c(C2CC2)cc1CN1CCC2(CC1)CN(c1ccc(C(=O)NC[C@H](O)[C@@H](O)[C@H](O)[C@H](O)CO)cc1)C(=O)O2 [Example 60, 4-(8-((2-cyclopropyl-5-ethoxy-4′-fluoro-[1,1′-biphenyl]-4-yl)methyl)-2-oxo-1-oxa-3,8-diazaspiro[4.5]decan-3-yl)-N-((2S,3R,4R,5R)-2,3,4,5,6-pentahydroxyhexyl)benzamide] |
| > 5000 | CCOc1cc(C(=O)OC)c(C2CC2)cc1CN1CCC2(CC1)CC(=O)N(c1ccc(C(=O)NCCNC(=O)NC(CO)CO)cc1)C2 [Example 16, methyl 2-cyclopropyl-4-((2-(4-((2-(3-(1,3-dihydroxypropan-2-yl)ureido)ethyl)carbamoyl)phenyl)-3-oxo-2,8-diazaspiro[4.5]decan-8-yl)methyl)-5-ethoxybenzoate] |

| SMILES | IC50 [nM] |
| --- | --- |
| CCOc1cc(C#N)c(C2CC2)cc1CN1CCN(C(=O)Oc2ccc(C(=O)NCCCC(=O)NCCO)cc2)CC1 [compound 95, [4-[[4-(2-hydroxyethylamino)-4-oxo-butyl]carbamoyl]phenyl]4-[(4-cyano-5-cyclopropyl-2-ethoxy-phenyl)methyl]piperazine-1-carboxylate] | > 5000 |
